Laboratory results taken from patent publication US7235588B2, “Method for reducing hypertension and heart failure” (The Research Foundation of State University of New York, priority 2001, dated 2007).
“Also recorded” adds a separate entry of the source. Where two headings read alike, the source gives them in different places.

What was measured:
[1] = system: hearts subjected to ischemia/reperfusion; details: cited from earlier work
rat hearts [2] = test: Myocardial function of spontaneously beating working hearts subjected to ischemia/reperfusion
[3] = system: spontaneously hypertensive rats; test: Blood pressure in spontaneously hypertensive rats; format: in vivo, rat; details: 5 micromoles, FIG. 9
Procedure: Adult spontaneously hypertensive rats, which are genetically predisposed to hypertension, and normotensive rats were anesthetized with pentobarbital sodium (65 mg/kg ip) in preparation for surgery. […] Teflon arterial catheter (ID […]) was inserted into the left femoral artery. The catheter was tunneled under the skin and exited at the nape of the rat's neck and connected to a 26 G needle capped on a port and flushed with 1:3 heparin saline. The rats were housed individually after surgery, and allowed 48 hours to recover from the operation. Systolic and diastolic blood pressure were directly measured using the connection to the port placed in the rat's neck to a manual transducer.

cardiomyocytes = test: Cardiomyocyte apoptosis by TUNEL after ischemia/reperfusion; set-up: species or system rat; details: FIG. 4C
Procedure: Immunohistochemical detection of apoptotic cells was carried out by use of terminal dUTP nick end-labeling (TUNEL), in which residues of digoxigenin-labeled dUTP are catalytically incorporated into the DNA by terminal deoxynucleotidyl transferase II. The cells were incubated with a sheep polyclonal anti-digoxigenin antibody followed by a FITC-conjugated rabbit anti-sheep IgG as a secondary antibody. The heart sections were washed in PBS 3 times, blocked with normal rabbit serum, and incubated with mouse monoclonal antibody recognizing cardiac myosin heavy chain (Biogenesis Ltd) followed by staining with TRIRC-conjugated rabbit anti-mouse IgG ([…] dilution, Dalco, Japan). The fluorescence staining was viewed with a confocal laser microscope (Olympus Co). The apoptoic cells were counted and expressed as percentage of total myocyte population. Ischemia was induced by a modified Langendorf-reperfusion method in rat hearts. Hearts from adult male rats were randomly divided into 4 groups and subjected to ischemia/reperfusion. In the ischemic group, hearts were perfused with Krebs-Henseleit buffer for 60 minutes, followed by 30 minutes of global ischemia. In the ischemic/reperfused group, hearts were perfused for 60 minutes, followed by 30 minutes of global ischemia and 120 minutes of reperfusion. Control group hearts were perfused for the same lengths of time.

rat hearts [4] = test: Myocardial infarct size (triphenyl tetrazolium staining) after ischemia/reperfusion; details: FIG. 4B
Procedure: To gain insight into the physiological basis for cardioprotection afforded by tyrphostin AG490, the extent of cardiomyocyte infarct size and apoptosis were measured. On termination of treatment with tyrphostin AG490, hearts were immersed in 1% triphenyl tetrazolium solution in phosphate buffer (Na2HPO4 88 mmol/l, NaH2PO4 1.8 mmol/l) for 10 min. at 37° C. and stored at −70° C. for processing. Frozen hearts (ventricular tissue) were sliced transversely in a plane perpendicular to the apicobasal axis into 0.5 mm thick sections, blotted dry, placed between microscope slides, and scanned on a Hewlett-Packard Scanjet 5 p single-pass flatbed scanner. With the NIH 1.61 image processing software, each digitized image was subjected to equivalent degrees of background subtraction, brightness, and contrast enhancement for improved clarity and distinctness. Risk (equivalent to total left ventricular muscle mass) and infarct zones of each slice were traced, and the respective areas were calculated in terms of pixels. The weight of each slice was then recorded to facilitate the expression of total and infarct masses of each slice in grams. The risk and infarct volumes of each slice in cubic centimeters were then calculated on the basis of slice weight to correct for any errors due to nonuniformity of heart slice thickness. […]

Jak2 = Jak2 (Homo sapiens, UniProt O60674); details: cited from earlier work
Sequence of Jak2 (O60674 whole entry, species assumed, the tested form may be a part): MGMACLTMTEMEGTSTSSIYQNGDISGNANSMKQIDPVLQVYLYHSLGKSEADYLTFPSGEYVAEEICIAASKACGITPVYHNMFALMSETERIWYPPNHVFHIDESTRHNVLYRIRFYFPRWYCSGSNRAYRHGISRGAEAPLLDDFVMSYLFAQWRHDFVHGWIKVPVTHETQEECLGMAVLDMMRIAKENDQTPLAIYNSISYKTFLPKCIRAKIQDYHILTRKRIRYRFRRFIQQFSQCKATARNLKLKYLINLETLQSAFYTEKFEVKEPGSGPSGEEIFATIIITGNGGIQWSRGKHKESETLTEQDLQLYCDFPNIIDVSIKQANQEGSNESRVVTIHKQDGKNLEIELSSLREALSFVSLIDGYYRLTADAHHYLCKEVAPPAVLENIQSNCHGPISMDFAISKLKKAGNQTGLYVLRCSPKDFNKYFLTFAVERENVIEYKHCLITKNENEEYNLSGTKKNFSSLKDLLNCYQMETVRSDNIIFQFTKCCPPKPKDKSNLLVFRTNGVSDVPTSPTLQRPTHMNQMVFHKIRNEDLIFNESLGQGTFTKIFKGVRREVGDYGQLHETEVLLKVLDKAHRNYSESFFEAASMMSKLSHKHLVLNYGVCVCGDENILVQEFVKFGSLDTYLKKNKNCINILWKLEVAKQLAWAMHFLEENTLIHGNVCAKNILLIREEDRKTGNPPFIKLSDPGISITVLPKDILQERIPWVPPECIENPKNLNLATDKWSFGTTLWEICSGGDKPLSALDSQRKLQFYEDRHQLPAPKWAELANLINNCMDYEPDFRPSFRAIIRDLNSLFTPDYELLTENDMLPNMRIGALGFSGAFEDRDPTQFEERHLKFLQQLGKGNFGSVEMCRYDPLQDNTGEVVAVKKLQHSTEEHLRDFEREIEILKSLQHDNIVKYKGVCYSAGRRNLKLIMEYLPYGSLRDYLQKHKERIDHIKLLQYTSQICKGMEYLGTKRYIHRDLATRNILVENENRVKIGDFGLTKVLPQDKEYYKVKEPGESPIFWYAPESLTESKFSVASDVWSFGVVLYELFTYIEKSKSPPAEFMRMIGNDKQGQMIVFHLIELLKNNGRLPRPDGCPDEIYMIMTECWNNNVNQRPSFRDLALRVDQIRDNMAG

[5] = system: St-domain/STAT binding activity; test: Electrophoretic gel mobility-shift assay of St-domain/STAT binding in heart nuclear extracts; set-up: species or system rat; details: hearts, 30 min ischemia/120 min reperfusion
Excerpt: Nuclear extracts were examined in hearts subjected to global ischemia to determine whether there is enhanced STAT binding activity to the St domain of the angiotensinogen promoter. The nuclear heart extracts were examined by the electrophoretic gel mobility-shift assay that exployed the use of the chemically synthesized oligonucleotide sequence of the St domain. The St-domain DNA probe for protein binding was a double-stranded oligonucleotide containing the sequence 5′-GGGTtcCTGGAAGGG-3′ SEQ. ID NO: 2, and complementary strand 5′-CCCTTCCAGgaACCC-3′ SEQ. ID NO: 3, respectively. These probes were end-labeled by polynucleotide kinase and [γ-^32P]ATP. Binding reaction mixture containing 0.5 ng of labeled DNA (1,000 cpm), 2 μg of poly(dI-C), and 1-12 μg of protein in buffer containing 20 mM Hepes, 3% glycerol, 1.5 mM MgCl2, 1 mM DTT, 2 mM EDTA and 50 mM KCl, pH 7.5 was allowed to incubate at 4° C. for 30 min. The reactions were analyzed by electrophoresis on 8% polyacrylanide gel in 0.375× TBE ([…] Tris borate, pH 8.7 and 1.0 mM EDTA). After electrophoresis, the gels were dried and subjected to autoradiography. […] (FIG. 5B). The activation of STATs and the consequent binding to the St-domain in the angiotensinogen promoter accounts for the increase in transcription of angiotensinogen mRNA. […]

[6] = first 60 min of reperfusion, treated groups (5 and 50 μmol/L)

N#C/C(=C\c1ccc(O)c(O)c1)C(=O)NCc1ccccc1 [tyrphostin AG490]
cardioprotection / myocardial damage due to ischemia [1]: afford cardioprotection | cardioprotection (developed pressure and dP/dt) (rat hearts [2]; 5 μmol/L): able to provide cardioprotection to approximately the same degree | Developed pressure (rat hearts [2]; 5 μmol/L, 60 min of reperfusion (R-60)): 86±2.5 mm Hg | Developed pressure (rat hearts [2]; 5 μmol/L, 90 min of reperfusion (R-90)): 69±5 mm HG | Developed pressure (rat hearts [2]; 5 μmol/L, 120 min of reperfusion (R-120)): 60.85±4 mm Hg | dp/dt (rat hearts [2]; 5 μmol/L, R-30): 3818±49.46 | dp/dt (rat hearts [2]; 5 μmol/L, R-60): 3362±53.14 | dp/dt (rat hearts [2]; 5 μmol/L, R-90): 2840±88 | dp/dt (rat hearts [2]; 5 μmol/L, R-120): 2552±58.9 | baseline value for dP/dt (rat hearts [2]; 50 μmol/L): increased slightly | cardioprotection (developed pressure and dP/dt) (rat hearts [2]; 50 μmol/L): able to provide cardioprotection to approximately the same degree | Developed pressure (rat hearts [2]; 50 μmol/L, 60 min of reperfusion (R-60)): 86±4.8 mm Hg | Developed pressure (rat hearts [2]; 50 μmol/L, 90 min of reperfusion (R-90)): 72.7±5.7 mm HG | Developed pressure (rat hearts [2]; 50 μmol/L, 120 min of reperfusion (R-120)): 53.75±7 mm Hg | dp/dt (rat hearts [2]; 50 μmol/L, R-30): 4156±238 | dp/dt (rat hearts [2]; 50 μmol/L, R-60): 3840±140 | dp/dt (rat hearts [2]; 50 μmol/L, R-90): 3194.7±228 | dp/dt (rat hearts [2]; 50 μmol/L, R-120): 2626±269 | dP/dt and developed pressure versus untreated group (rat hearts [2]; all treated groups (5 and 50 μmol/L)): significantly higher | Developed pressure (rat hearts [2]; [6]): minimally lowered | dP/dt value (rat hearts [2]; [6]): not lowered | blood pressure [3]: effective in lowering blood pressure to normal levels; also recorded: attenuation of hypertension | apoptotic cell death of cardiomyocytes (cardiomyocytes): marked lowering of apoptotic cell death; also recorded: reduction of apoptosis of cardiomyocytes | myocardial infarct size (rat hearts [4]): reduced myocardial infarct size; also recorded: reduction of infarct size | Jak2 inhibition, selectivity (Jak2; listed as AG490): selectively inhibits Jak2 | Jak2 inhibition, selectivity (Jak2; listed as Tyrphostin AG490): selective, specific, and potent | St-domain/STAT binding activity (STAT/DNA complex formation) [5]: total loss of STAT/DNA complex formation; also recorded: reduction of St-domain/STAT binding activity
